Key:
Type in all cases: physicochemical
[1] = Elution of doxorubicin from high AMPS microspheres into distilled water
Procedure: High AMPS microspheres were loaded with various concentrations of doxorubicin and the microspheres eluted into 250 ml of distilled water (FIG. 2).
For the higher drug loadings, a burst effect is evident in the first few minutes, followed by a prolonged period of slower release. It is surmised that the burst represents the free drug eluting from the water held within the microspheres, whereas the prolonged elution results from the drug that is “bound” into the spheres essentially by ionic interaction between the charged groups. For the highest loading of drug (from the 20 mg/ml loading solution), the burst effect represents some 45% of the total drug loading of the spheres, the remainder taking several days to completely elute from the carrier. Studies have shown that 100% of the drug is eventually eluted from the microspheres. Drug-loaded beads were lyophilised to remove water and sterilised using gamma irradiation.

[2] = Maximum loading capacity of DEB with Doxorubicin and Mitoxantrone; conditions: beads 700-900 μm
Procedure: Microspheres of the invention were prepared as described in the Reference Example. Sample beads of the size range 700-900 μm were loaded by immersing the beads in aqueous solutions of Doxorubicin HCl (Dox) and Mitoxantrone 2HCl (Mitox). Loading was monitored using UV-visible spectroscopy at the respective wavelengths for absorption maxima of the two drugs (483 nm and 660 nm respectively). The beads were sized and imaged using an Olympus BX50F4 microscope with a Colorview III camcorder. Compressibility was measured using an Instron 4411 with a 50 N load cell.

[3] = AQ4 and AQ4N loading profile and maximum loading capacity of DC Bead; conditions: DC Bead 500-700 μm; AQ4N target loading 60 mg/mL, 20 hr
[4] = Irinotecan loading capacity of microspheres (depletion method, UV 369 nm); conditions: microspheres 500-700 μm, irinotecan solution 20 mg/ml, at least 4 hours
Procedure: Irinotecan-loading content and loading efficacy was determined using microspheres, 500-700 μm. A bead slurry was mixed with irinotecan solution (20 mg/ml) in calculated amount, rotating-mixed for at least 4 hours. The solution was measured with UV at 369 nm to determine the irinotecan concentration and the drug-loading in beads (by depletion method). […] Above this the loading efficacy dropped remarkably, indicating saturation of the beads.

[5] = Elution from irinotecan lyophilised microspheres into PBS buffer
Description: Irinotecan was eluted from lyophilised microspheres with different loadings of camptothecin into PBS buffer. The elution rate slowed down after lyophilisation when compared with the non-lyophilised samples. […] Drug-loaded beads were lyophilised to removed water and sterilised using gamma irradiation.

Row | Compound | drug eluting at 3 hours ([1]; 133.2 μg/ml and 2 mg/ml loaded microspheres, 250 ml distilled water) | drug eventually eluted from the microspheres ([1]; high AMPS microspheres) | burst effect as share of the total drug loading of the spheres ([1]; high AMPS microspheres, highest loading (20 mg/ml loading solution), 250 ml distilled water, first few minutes) | Average (mg) of drug per mL of beads (average maximum capacity of DEB) [2] | Mols of loaded drug/Mols of available binding sites [2] | maximum loading capacity in DC Bead [3] | concentration range in which irinotecan content in beads increased linearly with loading amount (above it saturation of the beads) [4] | elution rate after lyophilisation compared with non-lyophilised samples [5] | Average (mg) of drug per mL of beads (average maximum capacity of DEB) ([2]; listed as Mitox)
1 | COc1cccc2c1C(=O)c1c(O)c3c(c(O)c1C2=O)C[C@@](O)(C(=O)CO)C[C@@H]3O[C@H]1C[C@H](N)[C@H](O)[C@H](C)O1 [Doxorubicin] | below the detection limit | 100% | ~45% | 39.0 mg per mL of beads | 0.9 | 40 mg/mL |  |  | 
2 | CCc1c2c(nc3ccc(OC(=O)N4CCC(N5CCCCC5)CC4)cc13)-c1cc3c(c(=O)n1C2)COC(=O)[C@]3(O)CC [Irinotecan] |  |  |  |  |  |  | below 50 mg/ml | slowed down | 
3 | O=C1c2c(O)ccc(O)c2C(=O)c2c(NCCNCCO)ccc(NCCNCCO)c21 [Mitoxantrone] |  |  |  | 20.0 mg per mL of beads | 0.5 |  |  |  | 20 mg per mL of beads
